Key:
[1] = Tolerability in CD1 mice: organ weight (Example 33); format: in vivo; details: 50 mg/kg s.c. twice a week, vs PBS control, normalized to body weight
Procedure: Three days after the last dose was administered to all groups, the mice were sacrificed.

human Factor 11 mRNA [2] = assay: Dose-dependent inhibition of human Factor 11 in HepG2 cells, lipofectin 2.34-75 nM (Example 5); format: cell-based; details: for percent inhibition of human Factor 11 mRNA relative to untreated control cells: ~16 hours
Procedure: (§1) Cells were plated at a density of 10,000 cells per well and transfected using lipofectin reagent with 2.34 nM, 4.69 nM, 9.375 nM, 18.75 nM, 37.5 nM, and 75 nM concentrations of antisense oligonucleotide, as specified in Table 11. After a treatment period of approximately 16 hours, RNA was isolated from the cells and human Factor 11 mRNA levels were measured by quantitative real-time PCR. Human Factor 11 primer probe set RTS 2966 was used to measure mRNA levels. Factor 11 mRNA levels were adjusted according to total RNA content, as measured by RIBOGREEN. Results are presented as percent inhibition of human Factor 11, relative to untreated control cells.

human Factor 11 mRNA [3] = assay: Dose-dependent inhibition of human Factor 11 in HepB3 cells, lipofectin (Example 7); format: cell-based; details: for percent inhibition of Factor 11 mRNA relative to untreated control cells: ~16 hours
Procedure: as §1, with “4,000” for “10,000”, “2.3” for “2.34”, “4.7” for “4.69”, “9.4” for “9.375”, “14.” for “11.”, “of” for “of human”

[4] = Tolerability in Sprague-Dawley rats: body weight and organ weight (Example 35); format: in vivo; details: 50 mg/kg s.c. twice per week for 6 weeks; for Percent change: Body weight: percent change over the weights at the start of the study; for Percent change in organ weight: Kidney / Percent change in organ weight: Liver / Percent change in organ weight: Spleen: vs saline control, normalized to body weight
Excerpt: Urine samples were taken before the start of treatment.
The body weights are presented in Table 71 and are expressed as a percent change over the weights taken at the start of the study.

human Factor 11 mRNA [5] = assay: Dose-dependent inhibition of human Factor 11 in cyano primary hepatocytes, electroporation (Example 6); format: cell-based; details: ~16 hours
Procedure: Cells were plated at a density of 35,000 cells per well and transfected via electroporation with 0.74 nM, 2.2 nM, 6.7 nM, 20 nM, 60 nM, and 180 nM concentrations of antisense oligonucleotide, as specified in Table 13. After a treatment period of approximately 16 hours, RNA was isolated from the cells and human Factor 11 mRNA levels were measured by quantitative real-time PCR. Human Factor 11 primer probe set RTS 2966 was used to measure mRNA levels. Factor 11 mRNA levels were adjusted according to total RNA content, as measured by RIBOGREEN. Results are presented as percent inhibition of human Factor 11, relative to untreated control cells.

Row | Substance | Percent change in kidney weight ([1]; 2 weeks) | Percent change in liver weight ([1]; 2 weeks) | Percent change in spleen weight ([1]; 2 weeks) | Percent change in kidney weight ([1]; 4 weeks) [%] | Percent change in liver weight ([1]; 4 weeks) | Percent change in spleen weight ([1]; 4 weeks) | Percent change in kidney weight ([1]; 6 weeks) [%] | Percent change in liver weight ([1]; 6 weeks) | Percent change in spleen weight ([1]; 6 weeks) | IC50 (human Factor 11 mRNA [2]) [nM] | percent inhibition of human Factor 11 mRNA relative to untreated control cells (human Factor 11 mRNA [2]; 2.34 nM) [%] | percent inhibition of human Factor 11 mRNA relative to untreated control cells (human Factor 11 mRNA [2]; 4.69 nM) [%] | percent inhibition of human Factor 11 mRNA relative to untreated control cells (human Factor 11 mRNA [2]; 9.375 nM) [%] | percent inhibition of human Factor 11 mRNA relative to untreated control cells (human Factor 11 mRNA [2]; 18.75 nM) [%] | percent inhibition of human Factor 11 mRNA relative to untreated control cells (human Factor 11 mRNA [2]; 37.5 nM) [%] | percent inhibition of human Factor 11 mRNA relative to untreated control cells (human Factor 11 mRNA [2]; 75 nM) [%] | IC50 (human Factor 11 mRNA [3]) [nM] | percent inhibition of Factor 11 mRNA relative to untreated control cells (human Factor 11 mRNA [3]; 2.3 nM) [%] | percent inhibition of Factor 11 mRNA relative to untreated control cells (human Factor 11 mRNA [3]; 4.7 nM) [%] | percent inhibition of Factor 11 mRNA relative to untreated control cells (human Factor 11 mRNA [3]; 9.4 nM) [%] | other results
1 | 416999 (antisense GCACAGTTTCTGGCAGGCCT; 2-13-5 gapmer chemistry, further chemistry not given here) [compound 416999] | −9% | +13% | +7% | −6 | +30% | +22% | −7 | +47% | +38% | 14 | 10 | 26 | 42 | 62 | 72 | 80 | 12 | 19 | 33 | 42 | percent inhibition of Factor 11 mRNA relative to untreated control cells (human Factor 11 mRNA [3]; 18.75 nM): 60%; percent inhibition of Factor 11 mRNA relative to untreated control cells (human Factor 11 mRNA [3]; 37.5 nM): 71%; percent inhibition of Factor 11 mRNA relative to untreated control cells (human Factor 11 mRNA [3]; 75 nM): 59%; Percent change: Body weight [4]: −37%; Percent change in organ weight: Kidney [4]: +71%; Percent change in organ weight: Liver [4]: +51%; Percent change in organ weight: Spleen [4]: +405%; percent inhibition of human Factor 11 mRNA relative to untreated control cells (human Factor 11 mRNA [5]; 0.74 nM): 3%; percent inhibition of human Factor 11 mRNA relative to untreated control cells (human Factor 11 mRNA [5]; 2.2 nM): 40%; percent inhibition of human Factor 11 mRNA relative to untreated control cells (human Factor 11 mRNA [5]; 6.7 nM): 36%; percent inhibition of human Factor 11 mRNA relative to untreated control cells (human Factor 11 mRNA [5]; 20 nM): 62%; percent inhibition of human Factor 11 mRNA relative to untreated control cells (human Factor 11 mRNA [5]; 60 nM): 67%; percent inhibition of human Factor 11 mRNA relative to untreated control cells (human Factor 11 mRNA [5]; 180 nM): 82%
2 | 417002 (antisense GGTGCACAGTTTCTGGCAGG; 2-13-5 gapmer chemistry, further chemistry not given here) [compound 417002] | +3% | +14% | +29% | −5 | +8% | +26% | −2 | +35% | +108% | 12 | 17 | 26 | 49 | 61 | 81 | 84 | 13 | 24 | 30 | 46 | percent inhibition of Factor 11 mRNA relative to untreated control cells (human Factor 11 mRNA [3]; 18.75 nM): 57%; percent inhibition of Factor 11 mRNA relative to untreated control cells (human Factor 11 mRNA [3]; 37.5 nM): 71%; percent inhibition of Factor 11 mRNA relative to untreated control cells (human Factor 11 mRNA [3]; 75 nM): 65%; Percent change: Body weight [4]: −29%; Percent change in organ weight: Kidney [4]: +63%; Percent change in organ weight: Liver [4]: +27%; Percent change in organ weight: Spleen [4]: +446%; percent inhibition of human Factor 11 mRNA relative to untreated control cells (human Factor 11 mRNA [5]; 0.74 nM): 32%; percent inhibition of human Factor 11 mRNA relative to untreated control cells (human Factor 11 mRNA [5]; 2.2 nM): 16%; percent inhibition of human Factor 11 mRNA relative to untreated control cells (human Factor 11 mRNA [5]; 6.7 nM): 28%; percent inhibition of human Factor 11 mRNA relative to untreated control cells (human Factor 11 mRNA [5]; 20 nM): 38%; percent inhibition of human Factor 11 mRNA relative to untreated control cells (human Factor 11 mRNA [5]; 60 nM): 55%; percent inhibition of human Factor 11 mRNA relative to untreated control cells (human Factor 11 mRNA [5]; 180 nM): 71%
3 | 417003 (antisense TGGTGCACAGTTTCTGGCAG; 2-13-5 gapmer chemistry, further chemistry not given here) [compound 417003] | −9% | +8% | +12% | −2 | +42% | +101% | −1 | +32% | +98% | 11 | 6 | 29 | 48 | 64 | 73 | 82 | 17 | 11 | 28 | 40 | percent inhibition of Factor 11 mRNA relative to untreated control cells (human Factor 11 mRNA [3]; 18.75 nM): 40%; percent inhibition of Factor 11 mRNA relative to untreated control cells (human Factor 11 mRNA [3]; 37.5 nM): 63%; percent inhibition of Factor 11 mRNA relative to untreated control cells (human Factor 11 mRNA [3]; 75 nM): 58%; Percent change: Body weight [4]: −40%; Percent change in organ weight: Kidney [4]: +25%; Percent change in organ weight: Liver [4]: +51%; Percent change in organ weight: Spleen [4]: +522%; percent inhibition of human Factor 11 mRNA relative to untreated control cells (human Factor 11 mRNA [5]; 0.74 nM): 12%; percent inhibition of human Factor 11 mRNA relative to untreated control cells (human Factor 11 mRNA [5]; 2.2 nM): 18%; percent inhibition of human Factor 11 mRNA relative to untreated control cells (human Factor 11 mRNA [5]; 6.7 nM): 19%; percent inhibition of human Factor 11 mRNA relative to untreated control cells (human Factor 11 mRNA [5]; 20 nM): 39%; percent inhibition of human Factor 11 mRNA relative to untreated control cells (human Factor 11 mRNA [5]; 60 nM): 58%; percent inhibition of human Factor 11 mRNA relative to untreated control cells (human Factor 11 mRNA [5]; 180 nM): 74%
